Assay results reported in publication PMC7785020, “A unique hormonal recognition feature of the human glucagon-like peptide-2 receptor” (Cell Research, 2020).
Positions count from the first letter of the chain named. Like-named read-outs stand apart in the source and are kept apart here. No end group written: not given here.

Assays:
Format in all cases: cell-based
Parameters in all cases: WT (1–553); expressed in transfected cells; HEK 293T (cAMP)
GLP-2R Y252^ECL1A = target: T1, GLP-2R Y252^ECL1A (Homo sapiens, UniProt O95838, Y252A); experiment: cAMP accumulation, Y252^ECL1A; conditions: HEK 293T, 30 min, RT, mean ± SEM, n ≥ 3 in duplicate; for Emax: HEK-293T, read-out: cAMP Emax (% WT); for EC50: read-out: cAMP pEC50 (converted)
T1 sequence (O95838 1-553 Y252A): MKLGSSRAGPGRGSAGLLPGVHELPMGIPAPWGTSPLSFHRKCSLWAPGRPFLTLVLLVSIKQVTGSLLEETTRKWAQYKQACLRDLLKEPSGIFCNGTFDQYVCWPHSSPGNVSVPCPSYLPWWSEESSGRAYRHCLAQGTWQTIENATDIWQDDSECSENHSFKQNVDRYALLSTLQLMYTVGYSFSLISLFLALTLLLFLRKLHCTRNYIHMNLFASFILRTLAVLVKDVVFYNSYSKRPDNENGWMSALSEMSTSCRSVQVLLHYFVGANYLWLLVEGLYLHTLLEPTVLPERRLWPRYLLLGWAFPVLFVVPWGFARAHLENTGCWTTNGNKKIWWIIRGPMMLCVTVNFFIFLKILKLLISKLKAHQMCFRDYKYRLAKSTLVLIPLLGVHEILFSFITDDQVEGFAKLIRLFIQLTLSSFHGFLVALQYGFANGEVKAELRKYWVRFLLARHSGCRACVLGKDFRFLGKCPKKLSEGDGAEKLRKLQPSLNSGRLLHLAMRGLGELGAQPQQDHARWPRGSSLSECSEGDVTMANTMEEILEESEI
Protocol: (§1) They were seeded onto 6-well cell culture plates and transiently transfected with different GLP-2R constructs using Lipofectamine 2000 transfection reagent (Invitrogen, Carlsbad, CA, USA). After 24 h, the transfected cells were seeded onto 384-well microtiter plates (3000 cells per well) in HBSS supplemented with 5 mM HEPES, 0.1% (w/v) bovine serum albumin (BSA) and 0.5 mM 3-isobutyl-1- methylxanthine, and stimulated with increasing concentrations of GLP-2 for 30 min at RT. Eu and Ulight were diluted by cAMP detection buffer and added to the plates separately to terminate the reaction. Plates were incubated at RT for 60 min before measuring the fluorescence intensity at 620 nm and […] by an EnVision multilabel plate reader (PerkinElmer, Boston, USA).

GLP-2R D244^ECL1A = target: T2, GLP-2R D244^ECL1A (Homo sapiens, UniProt O95838, D244A); experiment: cAMP accumulation, D244^ECL1A; conditions: Table S5, D244A, HEK 293T, 30 min, RT, mean ± SEM, n ≥ 3 in duplicate; for Emax: read-out: cAMP Emax (% WT); for EC50: read-out: cAMP pEC50 (converted)
T2 sequence (O95838 1-553 D244A): T1 sequence (O95838 1-553 Y252A) with D244A, A252Y
Protocol: as §1, with “HEK 293T cells were cultured in Dulbecco’s Modified Eagle’s Medium (DMEM) (Gibco, Waltham, USA) supplemented with 10% (v/v) fetal bovine serum (FBS) (Gibco) and 1% (v/v) sodium pyruvate (Gibco) at 37 °C, 5% CO2 in a humidified incubator. They” for “They”

GLP-2R W249^ECL1A = target: T3, GLP-2R W249^ECL1A (Homo sapiens, UniProt O95838, W249A); experiment: cAMP accumulation, W249^ECL1A; conditions: HEK 293T, 30 min, RT, mean ± SEM, n ≥ 3 in duplicate; for Emax: HEK-293T, read-out: cAMP Emax (% WT); for EC50: read-out: cAMP pEC50 (converted)
T3 sequence (O95838 1-553 W249A): T1 sequence (O95838 1-553 Y252A) with W249A, A252Y
Protocol: as §1

Emax (GLP-2R Y252^ECL1A; Table S5, Y252A) | EC50 (GLP-2R Y252^ECL1A; Table S5, Y252A) | Emax (GLP-2R D244^ECL1A) | EC50 (GLP-2R D244^ECL1A) | EC50 (GLP-2R W249^ECL1A; Table S5, W249A) | Compound | Emax (GLP-2R Y252^ECL1A; Table S3, Y252A) | Emax (GLP-2R W249^ECL1A; Table S3, W249A) | Emax (GLP-2R W249^ECL1A; Table S5, W249A)
106 ± 5.1% | 50.1 nM | 102 ± 1.8% | 3.16 nM | – | HADGSFTSDVSSYLEGQAARDFINWLIQTKITD [Chimeric GLP-1/GLP-2 (7-19)] | – | – | –
104 ± 2.1% | 3.98 nM | 104 ± 1.8% | 0.251 nM | 6310 nM | HADGSFSDEMNTILDNLAAKEFIAWLVKGRG [Chimeric GLP-1/GLP-2 (20-33)] | – | – | –
103 ± 3.1% | 6.31 nM | 102 ± 2.5% | 0.251 nM | 1260 nM | HAEGTFSDEMNTILDNLAARDFINWLIQTKITD [Chimeric GLP-1/GLP-2 (1-6)] | – | – | –

Compound | Emax (GLP-2R Y252^ECL1A; Table S5, Y252A) | EC50 (GLP-2R Y252^ECL1A; Table S5, Y252A) | Emax (GLP-2R D244^ECL1A) | EC50 (GLP-2R D244^ECL1A) | EC50 (GLP-2R W249^ECL1A; Table S5, W249A) | Emax (GLP-2R Y252^ECL1A; Table S3, Y252A) | Emax (GLP-2R W249^ECL1A; Table S3, W249A) | Emax (GLP-2R W249^ECL1A; Table S5, W249A)
CC[C@H](C)[C@H](NC(=O)[C@H](Cc1ccccc1)NC(=O)[C@H](CC(=O)O)NC(=O)[C@H](CCCNC(=N)N)NC(=O)[C@H](C)NC(=O)[C@H](C)NC(=O)[C@H](CC(C)C)NC(=O)[C@H](CC(N)=O)NC(=O)[C@H](CC(=O)O)NC(=O)[C@H](CC(C)C)NC(=O)[C@@H](NC(=O)[C@@H](NC(=O)[C@H](CC(N)=O)NC(=O)[C@H](CCSC)NC(=O)[C@H](CCC(=O)O)NC(=O)[C@H](CC(=O)O)NC(=O)[C@H](CO)NC(=O)[C@H](Cc1ccccc1)NC(=O)[C@H](CO)NC(=O)CNC(=O)[C@H](CC(=O)O)NC(=O)[C@H](C)NC(=O)[C@@H](N)Cc1c[nH]cn1)[C@@H](C)O)[C@@H](C)CC)C(=O)N[C@@H](CC(N)=O)C(=O)N[C@@H](Cc1c[nH]c2ccccc12)C(=O)N[C@@H](CC(C)C)C(=O)N[C@H](C(=O)N[C@@H](CCC(N)=O)C(=O)N[C@H](C(=O)N[C@@H](CCCCN)C(=O)N[C@H](C(=O)N[C@H](C(=O)N[C@@H](CC(=O)O)C(=O)O)[C@@H](C)O)[C@@H](C)CC)[C@@H](C)O)[C@@H](C)CC [Human GLP-2 (1–33)] | 102 ± 2.2% | – | 101 ± 2.8% | – | – | 103 ± 2.6% | 128 ± 162% | 113 ± 4.1%
